The results in this text go back to patent publication US20250313560A1, “Novel bicyclic benzylamido pyridine derivatives as SOS1 inhibitors” (Boehringer Ingelheim International GmbH, priority 2024, published 2025).

Where two headings read alike, the source gives them in different places.

Data set [1] addresses SOS1 and KRAS G12C (Homo sapiens (Human), UniProt Q07889). Put plainly: KRAS::SOS1 AlphaScreen binding assay (KRAS G12C). The note with it: average of at least two measurements. Background: In Alpha technology, singlet oxygen from a donor bead excites a nearby acceptor bead.
Data set [2] deals with ERK phosphorylation in NCI-H358 SOS2 KO cells (KRAS G12C). Put plainly: Erk phosphorylation assay. It counts as cell-based, human. The note with it: EGF stimulated, average of at least two measurements, read-out: pERK IC50. A digest of the protocol: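 NCI-H358 SOS2 KO cells (KRAS G12C) in DMEM/2% FBS were pretreated 50 min with compound, then stimulated with EGF (approx. 8 ng/mL) for 10-15 min. pERK1/2 (Thr202/Tyr204) measured in lysates by AlphaLISA SureFire; IC50 from variable-slope fit, averaged over at least two measurements.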

Data set [3] addresses SOS1 and KRAS G12D (Homo sapiens (Human), UniProt Q07889). Put plainly: KRAS::SOS1 AlphaScreen binding assay (KRAS G12D). The settings on record: average of at least two measurements.
The test system of data set [4] is human hepatocytes. Nature of the data set: Metabolic stability in human hepatocytes. The note with it: 1 μM test compound, 50% human serum, percentage of liver blood flow.
Protocol: The metabolic degradation of a test compound is performed with hepatocytes in suspension. After recovery from cryopreservation, human hepatocytes are diluted in Dulbecco's modified eagle medium (supplemented with 3.5 μg glucagon/500 mL, 2.5 mg insulin/500 mL, 3.75 mg hydrocortisone/500 mL, 50% human serum) to obtain a final cell density of 1.0×10^6 cells/mL. Following a preincubation in a cell culture incubator (37° C., 10% CO2), test compound dissolved in DMSO is mixed with the hepatocyte suspension, resulting in a final test compound concentration of 1 μM and a final DMSO concentration of 0.05%.
The cell suspension is incubated at 37° C. (cell culture incubator, horizontal shaker) and samples are removed from the incubation after 0, 0.5, 1, 2, 4 and 6 hours. Samples are quenched with acetonitrile (containing internal standard) and pelleted by centrifugation. The supernatant is transferred to a deep-well plate and prepared for analysis of decline of parent compound by HPLC-MS/MS.
The percentage of remaining test compound is calculated using the peak area ratio (test compound/internal standard) of each incubation time point relative to the time point 0 peak area ratio. The log-transformed data are plotted versus incubation time, and the absolute value of the slope obtained by linear regression analysis is used to estimate in vitro half-life (T1/2).
CL_[sequence]_IN VIVO[mL/min/kg]=(CL_[sequence][μL/min/10^6cells]×hepatocellularity[10^6cells/g liver]×liver factor[g/kg body weight])/1000
Hepatic in vivo blood clearance (CL) is predicted according to the well-stirred liver model considering an average liver blood flow (QH) of 20.7 mL/min/kg:
CL[mL/min/kg]=CL_[sequence]_IN VIVO[mL/min/kg]×hepatic blood flow[mL/min/kg]/(CL_[sequence]_IN VIVO[mL/min/kg]+hepatic blood flow[mL/min/kg])
Results are expressed as percentage of hepatic blood flow:
QH[%]=CL[mL/min/kg]/hepatic blood flow[mL/min/kg])
Data set [5] concerns the target CYP3A4 (Homo sapiens (Human), UniProt P08684). Put plainly: Mechanism-based inhibition of CYP3A4 assay (MBI 3A4). It counts as in vitro ADME. The note with it: human liver microsomes, midazolam substrate, hydroxy-midazolam formation after 30 min preincubation relative to 0 min; for inhibition at 30 min: human, probe midazolam 15 μM (hydroxy-midazolam formation), read-out: MBI inhibition % ctrl. [%] with MDZ. Here is the method: Mechanism-Based Inhibition of CYP3A4 assay (MBI 3A4): The mechanism-based inhibition towards CYP3A4 is assayed in human liver microsomes with midazolam as substrate. The test compounds and water control (wells w/o test compound) are preincubated in presence of NADPH (1 mM) with human liver microsomes (0.2 mg/mL) at a concentration of 0, 5 and 25 μM for 0, 10 and 30 min. After preincubation, the incubate is diluted 1:10 (to 0.02 mg/mL) and the substrate midazolam (15 μM) is added for the main incubation (10 min). The main incubation is quenched with ACN and the formation of hydroxy-midazolam is quantified via LC/MS-MS. The formation of hydroxy-midazolam from the 30 min preincubation relative to the formation from the 0 min preincubation is used as a readout. Values of less than 100% mean that the substrate midazolam is metabolized to a lower extent upon 30 min preincubation compared to 0 min preincubation. In general, low effects upon 30 min preincubation are desired (corresponding to values close to 100%/not different to the values determined with water control).
Table 5: Mechanism-based inhibition of P450 isoenzyme 3A4 with midazolam as substrate.

Data set [6] has as its target P450 3A4 (Homo sapiens (Human), UniProt P08684). Put plainly: Cytochrome P450 isoenzyme inhibition assay (P450 3A4, midazolam). It is filed as in vitro ADME. The settings on record: human liver microsomes, Midazolam as substrate; read-out: CYP3A4 inhibition IC50. The procedure, abridged:
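Midazolam (5 μM) hydroxylation by human liver microsomes (0.1 mg/ml) in 0.1 M TRIS with 5 mM MgCl2, started with 1 mM NADPH. Five compound concentrations in duplicate, e.g. top 50 μM with 1:4 dilutions. Metabolite quantified by LC-MS/MS against internal standard; IC50 from inhibition relative to no-compound control.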
For orientation: Liver microsomes are vesicles of endoplasmic reticulum, rich in cytochrome P450 enzymes.

[7] abbreviates: Homo sapiens, NCI-H358, NCI-H358 SOS2 KO cells.

One may read the IC50 as the point on the concentration scale where inhibition reaches its midpoint. As a reminder, the inhibition is the change of the read-out against control, counted positive when it falls.

Sequence of SOS1 and KRAS G12C (Q07889 564-1049, stated change not applied): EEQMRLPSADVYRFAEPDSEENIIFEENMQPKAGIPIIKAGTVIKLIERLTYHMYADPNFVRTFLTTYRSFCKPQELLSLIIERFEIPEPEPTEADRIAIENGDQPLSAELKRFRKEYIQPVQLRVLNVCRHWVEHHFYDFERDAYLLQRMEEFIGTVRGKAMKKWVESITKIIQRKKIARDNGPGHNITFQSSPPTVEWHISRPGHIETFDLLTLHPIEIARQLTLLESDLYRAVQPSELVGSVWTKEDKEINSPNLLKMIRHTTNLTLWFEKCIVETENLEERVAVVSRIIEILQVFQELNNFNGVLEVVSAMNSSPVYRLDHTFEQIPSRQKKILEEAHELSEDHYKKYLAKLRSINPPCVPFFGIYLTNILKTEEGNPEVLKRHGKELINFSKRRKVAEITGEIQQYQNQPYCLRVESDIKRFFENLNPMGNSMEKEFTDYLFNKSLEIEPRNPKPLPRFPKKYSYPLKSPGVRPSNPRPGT
Sequence of SOS1 and KRAS G12D (Q07889 564-1049, stated change not applied): as above
Sequence of CYP3A4 (P08684 whole entry): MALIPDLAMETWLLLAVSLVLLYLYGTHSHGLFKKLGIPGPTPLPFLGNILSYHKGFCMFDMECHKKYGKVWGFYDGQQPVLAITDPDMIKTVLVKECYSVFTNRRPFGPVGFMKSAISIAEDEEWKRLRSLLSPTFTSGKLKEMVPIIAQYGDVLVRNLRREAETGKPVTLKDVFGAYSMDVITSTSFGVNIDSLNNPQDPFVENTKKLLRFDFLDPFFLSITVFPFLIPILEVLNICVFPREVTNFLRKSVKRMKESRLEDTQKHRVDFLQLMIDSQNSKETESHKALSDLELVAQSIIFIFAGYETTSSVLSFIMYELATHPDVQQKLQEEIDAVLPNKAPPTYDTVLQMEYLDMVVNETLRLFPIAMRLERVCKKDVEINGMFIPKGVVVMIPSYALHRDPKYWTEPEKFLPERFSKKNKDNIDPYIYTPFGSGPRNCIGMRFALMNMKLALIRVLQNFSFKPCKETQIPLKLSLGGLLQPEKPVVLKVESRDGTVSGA
Sequence of P450 3A4 (P08684 whole entry): as above

As for `Cc1nc2c([C@H]3CC[C@H](N4CCC[C@H](O)C4)CC3)cc(C(=O)N[C@H](C)c3cccc(C(F)F)c3F)cn2n1` [Example E85], the 50% inhibitory concentration (IC50) in data set [1] was 37 nM; in data set [2] (setting [7]) it was 158 nM; in data set [3] it was 24 nM; in data set [6], greater than 50000 nM. Also, the “Hepatic clearance - QH[%] in human hepatocytes” value (“Hepatic clearance - QH[%]” for short) in data set [4] was found to be 14%. Besides, in data set [5], the inhibition at 30 min was determined as 102%.
Turning to `C[C@@H](NC(=O)c1cc([C@H]2CC[C@H](N3CCC[C@@H](O)C3)CC2)c2ncnn2c1)c1cccc(C(F)(F)F)c1F` [Example E68], the IC50 is 36 nM in data set [1], 116 nM in data set [2] (setting [7]), 27 nM in data set [3] and greater than 50000 nM in data set [6]. For the same compound, the “Hepatic clearance - QH[%]” value in data set [4] came to 12%. For the same compound, the inhibition at 30 min in data set [5] turned out to be 91%.
`C[C@@H](NC(=O)c1cc([C@H]2CC[C@H](N3CCC(F)C(O)C3)CC2)c2ncnn2c1)c1cccc(C(F)F)c1F` (single isomer, unassigned) [Example trans-E61b]: the IC50 in data set [1] was 32 nM; in data set [2] (NCI-H358 SOS2 KO cells) it was 138 nM; in data set [3] it was 32 nM; in data set [6], greater than 50000 nM. In data set [4], the “Hepatic clearance - QH[%]” value stood at 30%. Further, the “MBI inhibition % ctrl. [%] with MDZ” value in data set [5] is 101%.
As for `C[C@@H](NC(=O)c1cc(N2CCC3(CCCN3C)CC2)c2ncnn2c1)c1cccc(C(C)(F)F)c1F` [Example E74], the IC50 in data set [1] is 26 nM; in data set [2] (setting [7]), 206 nM; in data set [3], 21 nM; in data set [6] it was greater than 50000 nM. In addition, the “Hepatic clearance - QH[%]” value in data set [4] is reported as 8%. Further, the inhibition at 30 min in data set [5] turned out to be 89%.
Take `C[C@@H](NC(=O)c1cc(N2CCC(N3CCCC(O)CC3)CC2)c2ncnn2c1)c1cccc(C(F)F)c1F` (single isomer, unassigned) [Example E17b]: the IC50 is 38 nM in data set [1], 201 nM in data set [2] (NCI-H358 SOS2 KO cells), 32 nM in data set [3] and greater than 50000 nM in data set [6]. Further, in data set [4], the “Hepatic clearance - QH[%]” value worked out at 30%. Moreover, the inhibition at 30 min in data set [5] is 98%.
Turning to `C[C@@H](NC(=O)c1cc(N2CCC(O)(C3CCCN3)CC2)c2ncnn2c1)c1cccc(C(F)F)c1F` (single isomer, unassigned) [Example E38b], the IC50 in data set [1] is 59 nM; in data set [2] (NCI-H358 SOS2 KO cells) it was 217 nM; in data set [3], 41 nM; in data set [6], greater than 50000 nM. Moreover, in data set [4], the “Hepatic clearance - QH[%]” value is on record as 11%. Further, the “MBI inhibition % ctrl. [%] with MDZ” value in data set [5] came to 86%.
`C[C@@H](NC(=O)c1cc(N2CCC(N(C)CCO)CC2)c2ncnn2c1)c1cccc(C(F)(F)F)c1F` [Example E55]: the IC50 is 69 nM in data set [1], 397 nM in data set [2] (setting [7]), 54 nM in data set [3] and greater than 50000 nM in data set [6]. Moreover, the “Hepatic clearance - QH[%]” value in data set [4] is given as less than 4%. For the same compound, the inhibition at 30 min in data set [5] is 83%.
On to `C[C@@H](NC(=O)c1cc(N2CCC(N3CCC[C@H](O)C3)CC2)c2ncnn2c1)c1cccc(C(F)F)c1F` [Example E18], for which the IC50 was 49 nM in data set [1], 54 nM in data set [2] (setting [7]), 37 nM in data set [3] and greater than 50000 nM in data set [6]. The “Hepatic clearance - QH[%]” value in data set [4] is 17%. The inhibition at 30 min in data set [5] is 99%.
On to `C[C@@H](NC(=O)c1cc(N2CCC(NC3COCC3O)CC2)c2ncnn2c1)c1cccc(C(F)(F)F)c1F` (single isomer, unassigned) [Example trans-E42b], for which the 50% inhibitory concentration (IC50) was 37 nM in data set [1], 153 nM in data set [2] (NCI-H358 SOS2 KO cells), 36 nM in data set [3] and greater than 50000 nM in data set [6]. Also, in data set [4], the “Hepatic clearance - QH[%]” value is listed as 16%. Besides, the “MBI inhibition % ctrl. [%] with MDZ” value in data set [5] is 94%.
In the case of `C[C@@H](NC(=O)c1cc(N2CCC(N3CCC[C@H](O)C3)CC2)c2ncnn2c1)c1cccc(C(F)(F)F)c1F` [Example E44], the IC50 was 63 nM in data set [1], 58 nM in data set [2] (setting [7]), 42 nM in data set [3] and greater than 50000 nM in data set [6]. Besides, the “Hepatic clearance - QH[%]” value in data set [4] is reported as 16%. Also, in data set [5], the inhibition at 30 min turned out to be 95%.
For the compound `C[C@@H](NC(=O)c1cc(N2CCC(N3CCCC(C)(O)C3)CC2)c2ncnn2c1)c1cccc(C(F)(F)F)c1F` (single isomer, unassigned) [Example E47a], the IC50 was 96 nM in data set [1], 162 nM in data set [2] (setting [7]), 99 nM in data set [3] and greater than 50000 nM in data set [6]. Further, the “Hepatic clearance - QH[%]” value in data set [4] came out at 30%. Moreover, in data set [5], the inhibition at 30 min is 97%.
As for `C[C@@H]1[C@H](O)CN1C1CCN(c2cc(C(=O)N[C@H](C)c3cccc(C(F)(F)F)c3F)cn3ncnc23)CC1` [Example E25], the IC50 is 63 nM in data set [1], 282 nM in data set [2] (setting [7]), 53 nM in data set [3] and greater than 50000 nM in data set [6]. For the same compound, the “Hepatic clearance - QH[%]” value in data set [4] came to 17%. The inhibition at 30 min in data set [5] is 91%.
Take `C[C@@H](NC(=O)c1cc(N2CCC(N3C[C@@H](O)C[C@@H]3C)CC2)c2ncnn2c1)c1cccc(C(F)F)c1F` [Example E12]: the IC50 is 30 nM in data set [1], 110 nM in data set [2] (setting [7]), 24 nM in data set [3] and greater than 50000 nM in data set [6]. Further, the “Hepatic clearance - QH[%]” value in data set [4] came to 12%. The inhibition at 30 min in data set [5] worked out at 79%.
In the case of `C[C@@H](NC(=O)c1cc([C@H]2CC[C@H](N3CCC(F)C(O)C3)CC2)c2ncnn2c1)c1cccc(C(F)F)c1F` (single isomer, unassigned) [trans-E61a], the IC50 in data set [1] was 39 nM; in data set [2] (NCI-H358 SOS2 KO cells) it was 391 nM; in data set [3], 41 nM; in data set [6], greater than 50000 nM. Moreover, in data set [4], the “Hepatic clearance - QH[%]” value worked out at 40%. In addition, in data set [5], the inhibition at 30 min is 93%.
As for `C[C@@H](NC(=O)c1cc(N2CCC(N3CCC[C@H]3CO)CC2)c2ncnn2c1)c1cccc(C(F)F)c1F` [Example E6], the half-inhibitory concentration (IC50) in data set [1] was 36 nM; in data set [2] (setting [7]) it was 247 nM; in data set [3] it was 37 nM; in data set [6], greater than 50000 nM. Further, in data set [4], the “Hepatic clearance - QH[%]” value amounted to 16%. Further, the inhibition at 30 min in data set [5] worked out at 102%.
Consider `C[C@@H](NC(=O)c1cc(N2CCC(N3CC[C@@H](O)C3)CC2)c2ncnn2c1)c1cccc(C(F)(F)F)c1F` [Example E57], for which the IC50 was 65 nM in data set [1], 149 nM in data set [2] (setting [7]), 52 nM in data set [3] and greater than 50000 nM in data set [6]. Further, the “Hepatic clearance - QH[%]” value in data set [4] stood at 15%. The inhibition at 30 min in data set [5] turned out to be 106%.
With `C[C@@H](NC(=O)c1cc([C@H]2CC[C@H](N3CCC[C@H](O)C3)CC2)c2nncn2c1)c1cccc(C(F)F)c1F` [Example E81], the IC50 in data set [1] was 25 nM; in data set [2] (setting [7]) it was 258 nM; in data set [3], 24 nM; in data set [6], greater than 50000 nM. Besides, in data set [4], the “Hepatic clearance - QH[%]” value worked out at 15%. The inhibition at 30 min in data set [5] was determined as 93%.
Consider `C[C@@H](NC(=O)c1cc(N2CCC3(CCCCN3)CC2)c2ncnn2c1)c1cccc(C(F)F)c1F` [Example E19], for which the IC50 in data set [1] is 32 nM; in data set [2] (setting [7]), 222 nM; in data set [3] it was 27 nM; in data set [6], greater than 50000 nM. Besides, in data set [4], the “Hepatic clearance - QH[%]” value stood at 19%. Besides, the inhibition at 30 min in data set [5] stood at 102%.
Regarding `C[C@@H](NC(=O)c1cc([C@H]2CC[C@H](N3CC[C@](C)(O)C3)CC2)c2ncnn2c1)c1cccc(C(F)F)c1F` [Example E59], the IC50 in data set [1] is 42 nM; in data set [2] (setting [7]) it was 166 nM; in data set [3] it was 41 nM; in data set [6], greater than 50000 nM. Besides, in data set [4], the “Hepatic clearance - QH[%]” value worked out at 15%. The inhibition at 30 min in data set [5] was determined as 99%.
